In PubChem BioAssay AID1259407 (Chemical Carcinogenesis Research Information System (CCRIS), 2018):
Active and inactive are the calls of the source. The rule behind the calls is not given here.

Test system: CCRIS mutagenicity, Ames/micronucleus/aberration tests
Assay: CCRIS mutagenicity studies
[1] = Test System: AMES SALMONELLA TYPHIMURIUM, Strain/Indicator: TA98, Metabolic Activation: NONE, Method: PREINCUBATION
[2] = Test System: AMES SALMONELLA TYPHIMURIUM, Strain/Indicator: TA100, Metabolic Activation: NONE, Method: PREINCUBATION
[3] = Test System: AMES SALMONELLA TYPHIMURIUM, Strain/Indicator: TA1535, Metabolic Activation: NONE, Method: PREINCUBATION
[4] = Test System: AMES SALMONELLA TYPHIMURIUM, Strain/Indicator: TA1537, Metabolic Activation: NONE, Method: PREINCUBATION
[5] = Test System: AMES SALMONELLA TYPHIMURIUM, Strain/Indicator: TA1538, Metabolic Activation: NONE, Method: PREINCUBATION

## Cc1ccc(S(=O)(=O)NN)cc1
End Point: IN VITRO CHROMOSOMAL ABERRATIONS, Test System: CHL CELLS, Metabolic Activation: RAT, LIVER, S-9, SODIUM PHENOBARBITAL AND 5,6-BENZOFLAVONE
  mutagenic call: active; positive (structural changes)
Test System: AMES SALMONELLA TYPHIMURIUM, Strain/Indicator: TA97, Metabolic Activation: NONE, Method: STANDARD PLATE
  mutagenic call: inactive; negative
Test System: AMES SALMONELLA TYPHIMURIUM, Strain/Indicator: TA97, Metabolic Activation: RAT, LIVER, S-9, AROCLOR 1254, Method: STANDARD PLATE
  mutagenic call: inactive; negative
Test System: AMES SALMONELLA TYPHIMURIUM, Strain/Indicator: TA98, Metabolic Activation: HAMSTER, LIVER, S-9, AROCLOR 1254, Method: STANDARD PLATE
  mutagenic call: inactive; negative
[1]
  mutagenic call: inactive; negative
Test System: AMES SALMONELLA TYPHIMURIUM, Strain/Indicator: TA98, Metabolic Activation: NONE, Method: STANDARD PLATE
  mutagenic call: inactive; negative
Test System: AMES SALMONELLA TYPHIMURIUM, Strain/Indicator: TA98, Metabolic Activation: RAT LIVER S-9, PHENOBARBITAL AND BETA-NAPHTHOFLAVONE, Method: PREINCUBATION
  mutagenic call: inactive; negative
Test System: AMES SALMONELLA TYPHIMURIUM, Strain/Indicator: TA98, Metabolic Activation: RAT, LIVER, S-9, AROCLOR 1254, Method: STANDARD PLATE
  mutagenic call: inactive; negative
Test System: AMES SALMONELLA TYPHIMURIUM, Strain/Indicator: TA100, Metabolic Activation: HAMSTER, LIVER, S-9, AROCLOR 1254, Method: STANDARD PLATE
  mutagenic call: active; positive
[2]
  mutagenic call: active; positive
Test System: AMES SALMONELLA TYPHIMURIUM, Strain/Indicator: TA100, Metabolic Activation: NONE, Method: STANDARD PLATE
  mutagenic call: active; positive
Test System: AMES SALMONELLA TYPHIMURIUM, Strain/Indicator: TA100, Metabolic Activation: RAT LIVER S-9, PHENOBARBITAL AND BETA-NAPHTHOFLAVONE, Method: PREINCUBATION
  mutagenic call: active; positive
Test System: AMES SALMONELLA TYPHIMURIUM, Strain/Indicator: TA100, Metabolic Activation: RAT, LIVER, S-9, AROCLOR 1254, Method: STANDARD PLATE
  mutagenic call: active; positive
Test System: AMES SALMONELLA TYPHIMURIUM, Strain/Indicator: TA102, Metabolic Activation: NONE, Method: STANDARD PLATE
  mutagenic call: inactive; negative
Test System: AMES SALMONELLA TYPHIMURIUM, Strain/Indicator: TA102, Metabolic Activation: RAT, LIVER, S-9, AROCLOR 1254, Method: STANDARD PLATE
  mutagenic call: inactive; negative
[3]
  mutagenic call: active; positive
Test System: AMES SALMONELLA TYPHIMURIUM, Strain/Indicator: TA1535, Metabolic Activation: RAT LIVER S-9, PHENOBARBITAL AND BETA-NAPHTHOFLAVONE, Method: PREINCUBATION
  mutagenic call: active; positive
[4]
  mutagenic call: inactive; negative
Test System: AMES SALMONELLA TYPHIMURIUM, Strain/Indicator: TA1537, Metabolic Activation: RAT LIVER S-9, PHENOBARBITAL AND BETA-NAPHTHOFLAVONE, Method: PREINCUBATION
  mutagenic call: inactive; negative
[5]
  mutagenic call: inactive; negative
Test System: AMES SALMONELLA TYPHIMURIUM, Strain/Indicator: TA1538, Metabolic Activation: RAT LIVER S-9, PHENOBARBITAL AND BETA-NAPHTHOFLAVONE, Method: PREINCUBATION
  mutagenic call: inactive; negative
Test System: E.COLI, Strain/Indicator: WP2UVRA, Metabolic Activation: NONE, Method: PREINCUBATION
  mutagenic call: active; positive
Test System: E.COLI, Strain/Indicator: WP2UVRA, Metabolic Activation: RAT LIVER S-9, PHENOBARBITAL AND BETA-NAPHTHOFLAVONE, Method: PREINCUBATION
  mutagenic call: active; positive
Test System: MOUSE LYMPHOMA, Strain/Indicator: L5178Y (TK+/TK-), Metabolic Activation: NONE, Method: SUSPENSION/PLATE
  mutagenic call: active; positive. reevaluation of results: positive
Test System: MOUSE LYMPHOMA, Strain/Indicator: L5178Y (TK+/TK-), Metabolic Activation: RAT, LIVER, S-9, AROCLOR 1254, Method: SUSPENSION/PLATE
  mutagenic call: active; positive. reevaluation of results: equivocal

## CO
[1]
  mutagenic call: inactive; negative
Test System: AMES SALMONELLA TYPHIMURIUM, Strain/Indicator: TA98, Metabolic Activation: RAT, LIVER, S-9, KC 500, Method: PREINCUBATION
  mutagenic call: inactive; negative
[2]
  mutagenic call: inactive; negative
Test System: AMES SALMONELLA TYPHIMURIUM, Strain/Indicator: TA100, Metabolic Activation: RAT, LIVER, S-9, KC 500, Method: PREINCUBATION
  mutagenic call: inactive; negative
[3]
  mutagenic call: inactive; negative
Test System: AMES SALMONELLA TYPHIMURIUM, Strain/Indicator: TA1535, Metabolic Activation: RAT, LIVER, S-9, KC 500, Method: PREINCUBATION
  mutagenic call: inactive; negative
[4]
  mutagenic call: inactive; negative
Test System: AMES SALMONELLA TYPHIMURIUM, Strain/Indicator: TA1537, Metabolic Activation: RAT, LIVER, S-9, KC 500, Method: PREINCUBATION
  mutagenic call: inactive; negative
[5]
  mutagenic call: inactive; negative
Test System: AMES SALMONELLA TYPHIMURIUM, Strain/Indicator: TA1538, Metabolic Activation: RAT, LIVER, S-9, KC 500, Method: PREINCUBATION
  mutagenic call: inactive; negative
Test System: E. COLI, Strain/Indicator: WP2 UVRA, Metabolic Activation: NONE, Method: PREINCUBATION
  mutagenic call: inactive; negative
Test System: E. COLI, Strain/Indicator: WP2 UVRA, Metabolic Activation: RAT, LIVER, S-9, KC 500, Method: PREINCUBATION
  mutagenic call: inactive; negative

## COc1ccc(Cc2nccc3cc(OC)c(OC)cc23)cc1OC
Test System: AMES SALMONELLA TYPHIMURIUM, Strain/Indicator: TA100, Metabolic Activation: RAT, LIVER, S-9, PHENOBARBITAL AND BETA-NAPHTHOFLAVONE, Method: PREINCUBATION
  mutagenic call: active; positive

## CC1(C)C[C@H]2C=C(C=O)[C@@]3(C=O)C[C@@]3(C)[C@H]2C1
Test System: CHINESE HAMSTER V-79, Strain/Indicator: V-79/6-THIOGUANINE (HGPRT), Metabolic Activation: NONE
  mutagenic call: inactive; negative

## O=[N+]([O-])c1cccc2c1-c1ccc3ccc4cccc5cc-2c1c3c45
Test System: AMES SALMONELLA TYPHIMURIUM, Strain/Indicator: TA98, Metabolic Activation: RAT, LIVER, S-9, AROCLOR 1254, Method: PREINCUBATION
  mutagenic call: active; positive
Test System: AMES SALMONELLA TYPHIMURIUM, Strain/Indicator: TA100, Metabolic Activation: RAT, LIVER, S-9, AROCLOR 1254, Method: PREINCUBATION
  mutagenic call: active; positive

## O=[N+]([O-])c1ccccc1SSC(F)=C(Cl)Cl
Test System: AMES SALMONELLA TYPHIMURIUM, Strain/Indicator: TA100(DNP6), Metabolic Activation: NONE, Method: PREINCUBATION
  mutagenic call: active; positive
Test System: AMES SALMONELLA TYPHIMURIUM, Strain/Indicator: TA100(NR), Metabolic Activation: NONE, Method: PREINCUBATION
  mutagenic call: active; positive
